Test results as given in PubChem BioAssay (NCI).
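These data come from cells grown in 96-well plates and exposed to compound for 48 hours at five concentrations. TGI marks complete inhibition of growth.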

tested on: SK-MEL-2 melanoma; assay: inhibition of tumour cell growth, NCI panel, 48 h

| Compound | TGI [µM] |
| --- | --- |
| CC(C)Cc1c(C#N)c(C#N)c(N)n1Cc1ccccc1 | > 100 |
| CC1=NC(C)(C)N(O)C1(C)C | > 100 |
| Clc1cccc(C2ON=C(c3ccccc3)N2C23CC4CC(CC(C4)C2)C3)c1Cl (stereo not drawn) | > 10 |
| CNc1ccc2c(c1)Cc1ccccc1-2 | > 100 |
| CCN(CC(=O)O)CC(=O)O | > 100 |
| O=c1cc(-c2ccccc2F)[nH]c2cc3c(cc12)OCO3 | > 100 |
| CC(C)(C)c1ccc2c(c1)OCc1n[nH]c(n1)COc1cc(C(C)(C)C)ccc1OCCOCCO2 | 5.27 |
| COC1OC2COC(C)(C)OC2C2OC(C)(C)OC12 (stereo not drawn) | > 100 |
| O=C(NCCCNCCCCNCCCNC(=O)C(F)(F)F)C(F)(F)F | > 100 |
| O=C(O)c1cc2ccccc2c(S(=O)(=O)O)c1O | > 100 |
| COC(=O)c1sc2ncc3c(c2c1N)CC(C)CC3 (stereo not drawn) | > 100 |
| Cc1cccc(NC(Nc2cccc(C)c2)=C(C(Cl)=C(Cl)Cl)[N+](=O)[O-])c1 | 48.5 |
| COC(=O)C1=C(C(=O)OC)C2(C)CCC(=O)C1O2 (stereo not drawn) | > 10 |

tested on: SW-620 colon; assay: inhibition of tumour cell growth, NCI panel, 48 h

| Compound | TGI [µM] |
| --- | --- |
| O=CN(O)CC(=O)O | > 100 |
| COc1ccc(CN2C(=O)C(=O)N(C)C2=O)c2ccccc12 | > 10 |
| OCC1OC(O[C@H]2CN3[C@H](O)[C@@H](O)[C@H](O)[C@H]3C2O)C(O)C(O)C1O (stereo partly drawn) | > 100 |
| CC1OC(n2cc(F)c(=O)[nH]c2=O)C(O[Si](C)(C)C(C)(C)C)C1O[Si](C)(C)C(C)(C)C (stereo not drawn) | 28.6 |
| O=S1(=O)c2ccccc2NC(=S)N1c1ccccc1 | > 100 |
| COC(=O)C(CCSC)NC(=O)CSc1nnc(COc2ccc(Cl)cc2)n1-c1ccccc1 (stereo not drawn) | 49.7 |
| Cc1ccc(-n2cc(-c3ccc(Cl)cc3)c3c2N=CN2NC(c4ccco4)=NC32)cc1 (stereo not drawn) | > 100 |
| COn1cc(CO)c2ccccc21 | > 100 |
| COc1cc2nc(-c3c(F)cccc3F)n(Cc3c(F)cccc3F)c2cc1Cc1c(F)cccc1F | > 100 |
| O=C(/C=C1\C[C@H]2C=Nc3ccccc3C(=O)N2C1)NCCCCCNC(=O)/C=C1\C[C@H]2C=Nc3ccccc3C(=O)N2C1 | 5.93 |
| CC[P+](C#Cc1ccccc1)(c1ccccc1)c1ccccc1 | 10.8 |
| Cc1ccc(C(=O)c2[nH]c(Nc3cc(C)ccn3)c(C(=S)Nc3ccccc3)c2N)cc1 | > 100 |
| CC(C)Cc1c(C#N)c(C#N)c(N)n1Cc1ccccc1 | > 100 |
| CC1=NC(C)(C)N(O)C1(C)C | > 100 |
| Clc1cccc(C2ON=C(c3ccccc3)N2C23CC4CC(CC(C4)C2)C3)c1Cl (stereo not drawn) | > 10 |
| CNc1ccc2c(c1)Cc1ccccc1-2 | > 100 |
| CCN(CC(=O)O)CC(=O)O | > 100 |
| O=c1cc(-c2ccccc2F)[nH]c2cc3c(cc12)OCO3 | > 100 |
| CC(C)(C)c1ccc2c(c1)OCc1n[nH]c(n1)COc1cc(C(C)(C)C)ccc1OCCOCCO2 | 13.1 |
| COC1OC2COC(C)(C)OC2C2OC(C)(C)OC12 (stereo not drawn) | > 100 |
| O=C(NCCCNCCCCNCCCNC(=O)C(F)(F)F)C(F)(F)F | > 100 |
| O=C(O)c1cc2ccccc2c(S(=O)(=O)O)c1O | > 100 |
| COC(=O)c1sc2ncc3c(c2c1N)CC(C)CC3 (stereo not drawn) | > 100 |
| Cc1cccc(NC(Nc2cccc(C)c2)=C(C(Cl)=C(Cl)Cl)[N+](=O)[O-])c1 | 34.2 |
| COC(=O)C1=C(C(=O)OC)C2(C)CCC(=O)C1O2 (stereo not drawn) | > 10 |

tested on: TK-10 renal; assay: inhibition of tumour cell growth, NCI panel, 48 h

| Compound | TGI [µM] |
| --- | --- |
| O=CN(O)CC(=O)O | > 100 |
| COc1ccc(CN2C(=O)C(=O)N(C)C2=O)c2ccccc12 | > 10 |
| OCC1OC(O[C@H]2CN3[C@H](O)[C@@H](O)[C@H](O)[C@H]3C2O)C(O)C(O)C1O (stereo partly drawn) | > 100 |
| CC1OC(n2cc(F)c(=O)[nH]c2=O)C(O[Si](C)(C)C(C)(C)C)C1O[Si](C)(C)C(C)(C)C (stereo not drawn) | 22.9 |
| O=S1(=O)c2ccccc2NC(=S)N1c1ccccc1 | > 100 |
| COC(=O)C(CCSC)NC(=O)CSc1nnc(COc2ccc(Cl)cc2)n1-c1ccccc1 (stereo not drawn) | 33.3 |
| Cc1ccc(-n2cc(-c3ccc(Cl)cc3)c3c2N=CN2NC(c4ccco4)=NC32)cc1 (stereo not drawn) | 28.7 |
| COn1cc(CO)c2ccccc21 | > 46.2 |
| COc1cc2nc(-c3c(F)cccc3F)n(Cc3c(F)cccc3F)c2cc1Cc1c(F)cccc1F | > 100 |
| O=C(/C=C1\C[C@H]2C=Nc3ccccc3C(=O)N2C1)NCCCCCNC(=O)/C=C1\C[C@H]2C=Nc3ccccc3C(=O)N2C1 | 10.5 |
| CC[P+](C#Cc1ccccc1)(c1ccccc1)c1ccccc1 | 7.09 |
| Cc1ccc(C(=O)c2[nH]c(Nc3cc(C)ccn3)c(C(=S)Nc3ccccc3)c2N)cc1 | > 100 |
| CC(C)Cc1c(C#N)c(C#N)c(N)n1Cc1ccccc1 | > 100 |
| CC1=NC(C)(C)N(O)C1(C)C | > 100 |
| Clc1cccc(C2ON=C(c3ccccc3)N2C23CC4CC(CC(C4)C2)C3)c1Cl (stereo not drawn) | > 10 |
| CNc1ccc2c(c1)Cc1ccccc1-2 | 93.8 |
| CCN(CC(=O)O)CC(=O)O | > 100 |
| O=c1cc(-c2ccccc2F)[nH]c2cc3c(cc12)OCO3 | 98.2 |
| CC(C)(C)c1ccc2c(c1)OCc1n[nH]c(n1)COc1cc(C(C)(C)C)ccc1OCCOCCO2 | 8.14 |
| COC1OC2COC(C)(C)OC2C2OC(C)(C)OC12 (stereo not drawn) | > 100 |
| O=C(NCCCNCCCCNCCCNC(=O)C(F)(F)F)C(F)(F)F | > 100 |
| O=C(O)c1cc2ccccc2c(S(=O)(=O)O)c1O | > 100 |
| COC(=O)c1sc2ncc3c(c2c1N)CC(C)CC3 (stereo not drawn) | > 100 |
| Cc1cccc(NC(Nc2cccc(C)c2)=C(C(Cl)=C(Cl)Cl)[N+](=O)[O-])c1 | 28.5 |
| COC(=O)C1=C(C(=O)OC)C2(C)CCC(=O)C1O2 (stereo not drawn) | > 10 |
